Experimental data taken from ChEMBL document CHEMBL3085717, “Structural and thermodynamic dissection of linear motif recognition by the E. coli sliding clamp” (J Med Chem, 2013).
Peptide text beside a SMILES is read from it.

Experiment: Displacement of 5'-fluorescein(FAM)-QLDLF-OH from Escherichia coli AN1459 DNA polymerase 3beta by fluorescence polarization assay

CC(C)C[C@H](NC(=O)[C@H](CC(=O)O)NC(=O)[C@H](CC(C)C)NC(=O)[C@@H](N)CCC(N)=O)C(=O)N[C@@H](Cc1ccccc1)C(=O)O
IC50: 63.2 µM
Kd: 29.5 µM

CC(=O)N[C@@H](CCC(N)=O)C(=O)N[C@@H](CC(C)C)C(=O)N[C@@H](CC(=O)O)C(=O)N[C@@H](CC(C)C)C(=O)N[C@@H](Cc1ccccc1)C(=O)O
IC50: 1.9 µM
Kd: 0.9 µM

CC(C)CCC(=O)N[C@@H](Cc1ccccc1)C(=O)O
IC50: 4440 µM

CC(=O)N[C@@H](CC(C)C)C(=O)N[C@@H](Cc1ccccc1)C(=O)O (Ac-Leu-Phe-OH)
IC50: 1100 µM

Ac-ALDLF-OH
IC50: 603 µM
Kd: 281 µM

Ac-ELDLF-OH
IC50: 222 µM
Kd: 104 µM

Ac-GLDLF-OH
IC50: 976 µM
Kd: 456 µM

Ac-NLDLF-OH
IC50: 43.6 µM
Kd: 20.3 µM

Ac-QADLF-OH
IC50: 78.6 µM
Kd: 36.7 µM

Ac-QGDLF-OH
IC50: 36.1 µM
Kd: 16.8 µM

Ac-QLALF-OH
IC50: 3.4 µM
Kd: 1.6 µM

Ac-QLDAF-OH
IC50: 247 µM
Kd: 115 µM

Ac-QLDGF-OH
IC50: 1520 µM
Kd: 711 µM

Ac-QLDLA-OH
IC50: 555 µM
Kd: 259 µM

Ac-QLDLG-OH
IC50: 1070 µM
Kd: 498 µM

Ac-QLDLL-OH
IC50: 21 µM
Kd: 9.8 µM

Ac-QLDVF-OH
IC50: 1220 µM
Kd: 567 µM

Ac-QLGLF-OH
IC50: 10.4 µM
Kd: 4.9 µM

Ac-QVDLF-OH
IC50: 60.4 µM
Kd: 28.2 µM
